From patent US11596639B2, “Substituted indole Mcl-1 inhibitors” (Vanderbilt University, priority 2016, dated 2023) come the findings set out here.

The target in this test is Mcl-1 (Homo sapiens (Human), UniProt Q07820). The test can be described thus: Fluorescence polarization anisotropy (FPA) competition assay, FITC-Bak or FITC-Bim BH3 peptide. Conditions: read-out: Ki for Inhibition of Mcl-1 by FPA assay. The test is classed as binding.
Mcl-1, sequence (Q07820 172-327): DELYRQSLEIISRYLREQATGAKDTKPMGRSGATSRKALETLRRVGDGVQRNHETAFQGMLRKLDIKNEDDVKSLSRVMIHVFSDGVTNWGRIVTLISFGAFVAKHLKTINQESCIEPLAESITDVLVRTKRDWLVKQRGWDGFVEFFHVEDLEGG

With `Cc1cc(OCCCc2c3n(c4c(-c5c(C)nn(C)c5C)c(Cl)ccc24)[C@H](C)[C@@H](C)N(c2cc(C(=O)O)c4ccn(C)c4c2)C3=O)cc(C)c1Cl` [Example 143, 6-((3R,4R)-7-chloro-10-(3-(4-chloro-3,5-dimethylphenoxy)propyl)-3,4-dimethyl-1-oxo-6-(1,3,5-trimethyl-1H-pyrazol-4-yl)-3,4-dihydropyrazino[1,2-a]indol-2(1H)-yl)-1-methyl-1H-indole-4-carboxylic acid], the Ki came out at 7.6 nM.

Consider `Cc1cc(OCCCc2c3n(c4c(-c5c(C)nn(C)c5C)c(Cl)ccc24)[C@H](C)CN(c2cn(C)c4cc(C(F)(F)F)ccc24)C3=O)cc(C)c1Cl` [Example 199, (4R)-7-chloro-10-[3-(4-chloro-3,5-dimethyl-phenoxy)propyl]-4-methyl-2-[1-methyl-6-(trifluoromethyl)indol-3-yl]-6-(1,3,5-trimethylpyrazol-4-yl)-3,4-dihydropyrazino[1,2-a]indol-1-one], for which the Ki came out at 12 nM.

For the compound `COC(=O)c1cn(C)c2c(N3C[C@@H](C)n4c(c(CCCOc5cc(C)c(Cl)c(C)c5)c5ccc(Cl)c(-c6c(C)nn(C)c6C)c54)C3=O)cccc12` [Example 205, Methyl (R)-7-(7-chloro-10-(3-(4-chloro-3,5-dimethylphenoxy)propyl)-4-methyl-1-oxo-6-(1,3,5-trimethyl-1H-pyrazol-4-yl)-3,4-dihydropyrazino[1,2-a]indol-2(1H)-yl)-1-methyl-1H-indole-3-carboxylate], the Ki is 2.4 nM.

`COC(=O)c1ccc2c(c1)c(N1C[C@@H](C)n3c(c(CCCOc4cc(C)c(Cl)c(C)c4)c4ccc(Cl)c(-c5c(C)nn(C)c5C)c43)C1=O)cn2COCC[Si](C)(C)C` [Example 243, Methyl (R)-3-(7-chloro-10-(3-(4-chloro-3,5-dimethylphenoxy)propyl)-4-methyl-1-oxo-6-(1,3,5-trimethyl-1H-pyrazol-4-yl)-3,4-dihydropyrazino[1,2-a]indol-2(1H)-yl)-1-((2-(trimethylsilyl)ethoxy)methyl)-1H-indole-5-carboxylate]: the Ki is 45 nM.

With `Cc1cc(OCCCc2c3n(c4c(-c5c(C)ncnc5C)c(Cl)ccc24)[C@H](C)CN(c2cccc4cccc(C(=O)O)c24)C3=O)cc(C)c1Cl` [Example 255, 8-[(4R)-7-chloro-10-[3-(4-chloro-3,5-dimethyl-phenoxy)propyl]-6-(4,6-dimethylpyrimidin-5-yl)-4-methyl-1-oxo-3,4-dihydropyrazino[1,2-a]indol-2-yl]naphthalene-1-carboxylic acid], the Ki was 1.3 nM.

`Cc1cc(OCCCc2c3n(c4c(-c5c(C)nn(C)c5C)c(Cl)ccc24)[C@H](C)CN(c2cccc4c2cc(C(N)=O)n4C)C3=O)cc(C)c1Cl` [Example 266, 4-[(4R)-7-chloro-10-[3-(4-chloro-3,5-dimethyl-phenoxy)propyl]-4-methyl-1-oxo-6-(1,3,5-trimethylpyrazol-4-yl)-3,4-dihydropyrazino[1,2-a]indol-2-yl]-1-methyl-indole-2-carboxamide]: the Ki came out at 9.2 nM.

Take `Cc1cc(OCCCc2c3n(c4c(-c5c(C)nn(C)c5C)c(Cl)ccc24)[C@H](C)CN(c2cc(O)cc4c2cc(C(=O)O)n4C)C3=O)cc(C)c1Cl` [Example 303, (P, R)-4-(7-chloro-10-(3-(4-chloro-3,5-dimethylphenoxy)propyl)-4-methyl-1-oxo-6-(1,3,5-trimethyl-1H-pyrazol-4-yl)-3,4-dihydropyrazino[1,2-a]indol-2(1H)-yl)-6-hydroxy-1-methyl-1H-indole-2-carboxylic acid]: the Ki was under 1 nM.

Regarding `Cc1cc(OCCCc2c3n(c4c(-c5c(C)nn(C)c5C)c(Cl)ccc24)[C@H](C)CN(c2ccc(OCC4CCN(C)C4)c4c2cc(C(=O)O)n4C)C3=O)cc(C)c1Cl` (some centres unmarked) [Example 319, 4-((M, R)-7-Chloro-10-(3-(4-chloro-3,5-dimethylphenoxy)propyl)-4-methyl-1-oxo-6-(1,3,5-trimethyl-1H-pyrazol-4-yl)-3,4-dihydropyrazino[1,2-a]indol-2(1H)-yl)-1-methyl-7-((1-methylpyrrolidin-3-yl)methoxy)-1H-indole-2-carboxylic acid], the Ki was found to be 3.2 nM.

For the compound `Cc1cc(OCCCc2c3n(c4c(-c5c(C)nn(C)c5C)c(Cl)ccc24)[C@H](C)CN(c2cccc4cc(C(=O)O)n(CC5CCN(C)C5)c24)C3=O)cc(C)c1Cl` (stereo partly drawn) [Example 320, 7-((R)-7-Chloro-10-(3-(4-chloro-3,5-dimethylphenoxy)propyl)-4-methyl-1-oxo-6-(1,3,5-trimethyl-1H-pyrazol-4-yl)-3,4-dihydropyrazino[1,2-a]indol-2(1H)-yl)-1-((1-methylpyrrolidin-3-yl)methyl)-1H-indole-2-carboxylic acid], the Ki worked out at 2.7 nM.

As for `COc1ccc(N2C[C@@H](C)n3c(c(CCCOc4cc(C)c(Cl)c(C)c4)c4ccc(Cl)c(-c5c(C)nn(C)c5C)c43)C2=O)c2c1c(C)c(C(=O)O)n2C` [Example 351, (R)-7-(7-Chloro-10-(3-(4-chloro-3,5-dimethylphenoxy)propyl)-4-methyl-1-oxo-6-(1,3,5-trimethyl-1H-pyrazol-4-yl)-3,4-dihydropyrazino[1,2-a]indol-2(1H)-yl)-4-methoxy-1,3-dimethyl-1H-indole-2-carboxylic acid], the Ki was under 1 nM.

With `Cc1cc(OCCCc2c3n(c4c(-c5c(C)nn(C)c5C)c(Cl)ccc24)[C@H](C)CN(c2cccc4c2cc(C(=O)O)n4CCN2CCCC2)C3=O)cc(C)c1Cl` [Example 369, (R)-4-(7-Chloro-10-(3-(4-chloro-3,5-dimethylphenoxy)propyl)-4-methyl-1-oxo-6-(1,3,5-trimethyl-1H-pyrazol-4-yl)-3,4-dihydropyrazino[1,2-a]indol-2(1H)-yl)-1-(2-(pyrrolidin-1-yl)ethyl)-1H-indole-2-carboxylic acid], the Ki is 3.2 nM.

Consider `Cc1nn(C)c(C)c1-c1c(Cl)ccc2c(CCCOCC3CC3)c3n(c12)[C@H](C)CN(c1cn(C)c2ccc(C(=O)O)cc12)C3=O` [Example 404, (R)-3-(7-chloro-10-(3-(cyclopropylmethoxy)propyl)-4-methyl-1-oxo-6-(1,3,5-trimethyl-1H-pyrazol-4-yl)-3,4-dihydropyrazino[1,2-a]indol-2(1H)-yl)-1-methyl-1H-indole-5-carboxylic acid], for which the Ki is 44 nM.

For `COCCCc1c2n(c3c(-c4c(C)nn(C)c4C)c(Cl)ccc13)[C@H](C)CN(c1cn(C)c3ccc(C(=O)O)cc13)C2=O` [Example 406, (R)-3-(7-Chloro-10-(3-methoxypropyl)-4-methyl-1-oxo-6-(1,3,5-trimethyl-1H-pyrazol-4-yl)-3,4-dihydropyrazino[1,2-a]indol-2(1H)-yl)-1-methyl-1H-indole-5-carboxylic acid], the Ki was over 250 nM.

For the compound `COc1ccc(N2C[C@@H](C)n3c(c(CCCOc4cc(C)c(Cl)c(C)c4)c4ccc(Cl)c(-c5c(C)nn(C)c5C)c43)C2=O)c2c1c(C)c(C(N)=O)n2C` [Example 411, (R)-7-(7-Chloro-10-(3-(4-chloro-3,5-dimethylphenoxy)propyl)-4-methyl-1-oxo-6-(1,3,5-trimethyl-1H-pyrazol-4-yl)-3,4-dihydropyrazino[1,2-a]indol-2(1H)-yl)-4-methoxy-1,3-dimethyl-1H-indole-2-carboxamide], the Ki was determined as 5.6 nM.

As for `Cc1cc(OCCCc2c3n(c4c(-c5c(C)nn(C)c5C)c(Cl)ccc24)[C@H](C)CN(c2cn(C)c4ccc(-c5nnc(C6CCCCC6)o5)cc24)C3=O)cc(C)c1Cl` [Example 413, (R)-7-Chloro-10-(3-(4-chloro-3,5-dimethylphenoxy)propyl)-2-(5-(5-cyclohexyl-1,3,4-oxadiazol-2-yl)-1-methyl-1H-indol-3-yl)-4-methyl-6-(1,3,5-trimethyl-1H-pyrazol-4-yl)-3,4-dihydropyrazino[1,2-a]indol-1(2H)-one], the Ki worked out at 3.5 nM.

As for `Cc1cc(OCCCc2c3n(c4c(-c5c(C)nn(C)c5C)c(Cl)ccc24)[C@H](C)CN(c2cn(C)c4ccc(-c5nnc(-c6ccccc6)o5)cc24)C3=O)cc(C)c1Cl` [Example 421, (R)-7-chloro-10-(3-(4-chloro-3,5-dimethylphenoxy)propyl)-4-methyl-2-(1-methyl-5-(5-phenyl-1,3,4-oxadiazol-2-yl)-1H-indol-3-yl)-6-(1,3,5-trimethyl-1H-pyrazol-4-yl)-3,4-dihydropyrazino[1,2-a]indol-1(2H)-one], the Ki was found to be 3.4 nM.

Turning to `Cc1cc(OCCCc2c3n(c4c(-c5c(C)nn(C)c5C)c(Cl)ccc24)[C@H](C)CN(c2ccc(F)c4cc[nH]c24)C3=O)cc(C)c1Cl` [Example 446, (R)-7-Chloro-10-(3-(4-chloro-3,5-dimethylphenoxy)propyl)-2-(4-fluoro-1H-indol-7-yl)-4-methyl-6-(1,3,5-trimethyl-1H-pyrazol-4-yl)-3,4-dihydropyrazino[1,2-a]indol-1(2H)-one], the Ki turned out to be 8.2 nM.

As to `Cc1cc(OCCCc2c3n(c4c(-c5c(C)nn(C)c5C)c(Cl)ccc24)[C@H](C)CN(c2cnc4ccc(C(=O)O)cn24)C3=O)cc(C)c1Cl` [Example 473, (R)-3-(7-chloro-10-(3-(4-chloro-3,5-dimethylphenoxy)propyl)-4-methyl-1-oxo-6-(1,3,5-trimethyl-1H-pyrazol-4-yl)-3,4-dihydropyrazino[1,2-a]indol-2(1H)-yl)imidazo[1,2-a]pyridine-6-carboxylic acid], the Ki was determined as 4.1 nM.

As to `Cc1cc(OCCCc2c(C(=O)N(C)c3cccc(C(=O)O)c3)n(CCN3CCOCC3)c3c(-c4c(C)nn(C)c4C)c(Cl)ccc23)cc(C)c1Cl` [Example 730, 3-[[6-chloro-3-[3-(4-chloro-3,5-dimethyl-phenoxy)propyl]-1-(2-morpholinoethyl)-7-(1,3,5-trimethylpyrazol-4-yl)indole-2-carbonyl]-methyl-amino]benzoic acid], the Ki came out at 20 nM.

`Cc1cc(OCCCc2c(C(=O)N(C)c3ccc(C(=O)O)cc3)n(CCN3CCOCC3)c3c(-c4c(C)nn(C)c4C)c(Cl)ccc23)cc(C)c1Cl` [Example 731, 4-[[6-Chloro-3-[3-(4-chloro-3,5-dimethyl-phenoxy)propyl]-1-(2-morpholinoethyl)-7-(1,3,5-trimethylpyrazol-4-yl)indole-2-carbonyl]-methyl-amino]benzoic acid]: the Ki was over 200 nM.

A word on the Ki: it is the equilibrium dissociation constant of an inhibitor or competing ligand from its target.
